Experimental data from patent US11702442B2, “Cyclic dinucleotide compounds as sting agonists” (The Regents of the University of California, priority 2019, dated 2023).
Entries after “also recorded” stand apart in the source; their conditions may differ.

Key:
[1] = target: DncV (Vibrio cholerae serotype O1, UniProt Q9KVG7); details: pseudo-second order simulation, FL Model 2
Method: The bacterial enzyme DncV was thus incubated with either GTP, ^thGTP, ^tzGTP or mixtures thereof under the same conditions as the HPLC-monitored reactions. Aliquots were treated with calf intestinal alkaline phosphatase (CIAP) at designated times, and emission spectra were taken after appropriate dilution.
Unlike integrated chromatographic analyses, which can separately account for all individual species present, the observed fluorescence signal reflects the sum of all emissive species. To facilitate quantitative analyses of fluorescence data, a conversion factor (a) was introduced to the simulation of the fluorescence-monitored reaction kinetics. This factor bridges the integrated fluorescent spectrum and the concentration of a given chromophore at a given set of conditions and can be calculated from the integrated emission spectrum (FLint) of a given chromophore with known concentration ([C]) using Equation (5). […] To compare the fluorescence- and HPLC-monitored reaction kinetics, Equation (6) was used to correlate the recorded fluorescence spectrum with the concentrations of different species in the reaction mixture. As a first attempt, the k values extracted from the HPLC analysis were used to fit the fluorescence data (referred to as FL Model 1). […]

[2] = tested on: STING pathway; experiment: Type-I IFN production in THP-1 cells detected with HEK-Blue IFN α/β reporter cells; assay type: cell-based, human; details: 5 μM CDN, 4 h incubation, compared with c-di-GMP
Method: THP-1 cells were seeded at a density of 100000 cells/well in a 96-well cell culture plate and differentiated with 25 nM of PMA for approximately 20 h prior to treatment with CDNs. Cells were transfected with 5 μM of CDNs in a permeabilization buffer containing 5 μg/mL of digitonin, then washed and incubated in RPMI medium with 2% FBS at 37° C. for 4 h. 50 μL of cell culture supernatant per well was transferred to 150 μL of HEK-Blue IFN α/β reporter cells seeded at 50000 cells/well in a 96-well cell culture plate and incubated at 37° C. overnight. The reporter cells were spun down the next day, and 50 μL of cell culture supernatant per well was transferred to a 96-well plate and added with 150 μL of QUANTI-Blue™ SEAP detection medium (InvivoGen). The samples were then incubated at 37° C. for 1 h 20 min before absorption was measured at 640 nm. The absorption signal of each sample was normalized to untreated samples. Two independent assays were performed in duplicate or triplicate. Error bars indicate SD.
To preliminarily determine whether the synthetic c-di-GMP analogues could activate the IFN response in eukaryotic cells, THP-1 cells were treated with 5 μM of c-di-GMP, c-GthGMP and c-di-thGMP.
Detecting type-I IFN production with reporter cells. […] The samples were then incubated at 37° C. for 80 min before absorption was measured at 640 nm with an EnSpire plate reader (PerkinElmer). […]

DncV, sequence (Q9KVG7 whole entry): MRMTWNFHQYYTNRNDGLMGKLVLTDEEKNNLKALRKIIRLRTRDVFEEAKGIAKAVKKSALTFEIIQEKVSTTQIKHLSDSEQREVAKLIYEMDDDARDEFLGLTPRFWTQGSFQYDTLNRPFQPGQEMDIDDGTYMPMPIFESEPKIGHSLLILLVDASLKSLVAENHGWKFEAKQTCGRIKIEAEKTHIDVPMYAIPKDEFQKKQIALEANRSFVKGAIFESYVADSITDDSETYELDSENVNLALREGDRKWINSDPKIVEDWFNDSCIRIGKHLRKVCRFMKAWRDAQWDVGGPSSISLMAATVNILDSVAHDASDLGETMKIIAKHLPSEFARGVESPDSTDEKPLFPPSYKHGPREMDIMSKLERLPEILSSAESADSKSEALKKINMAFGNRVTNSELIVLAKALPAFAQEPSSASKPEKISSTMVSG

Compound	kapp (apparent kinetics rate constant) [1]	type-I IFN induction [2]
Nc1nc2c([C@@H]3O[C@@H]4COP(=O)(O)O[C@H]5[C@@H](O)[C@H](c6snc7c(=O)[nH]c(N)nc67)O[C@@H]5COP(=O)(O)O[C@H]4[C@H]3O)snc2c(=O)[nH]1 [c-di-^tzGMP]	1.57 ± 0.15 M⁻¹ s⁻¹	–
Nc1nc2c([C@@H]3O[C@@H]4COP(=O)(O)O[C@H]5[C@@H](O)[C@H](n6cnc7c(=O)[nH]c(N)nc76)O[C@@H]5COP(=O)(O)O[C@H]4[C@H]3O)scc2c(=O)[nH]1 [c-G^thGMP]	–	comparable efficiency to cdi-GMP; also recorded: comparable potency to c-di-GMP
Nc1nc2c([C@@H]3O[C@@H]4COP(=O)(O)O[C@H]5[C@@H](O)[C@H](c6scc7c(=O)[nH]c(N)nc67)O[C@@H]5COP(=O)(O)O[C@H]4[C@H]3O)scc2c(=O)[nH]1 [c-di-^thGMP]	0.53 ± 0.05 M⁻¹ s⁻¹	no activity
